Drawing on patent US8580288B2, “Agricultural or horticultural fungicide composition and its use for controlling plant pathogens” (Ishihara Sangyo Kaisha, Ltd, priority 2009, dated 2013), this text covers inhibition for two compounds.

Like-named read-outs stand apart in the source and are kept apart here.

One assay deals with Pythium aristosporum. Kind of assay: Inhibition test of mycelial growth against Pythium aristosporum. The format is cell-based. The settings on record: 48 h, PSA, 2 days, 20° C., read-out: Inhibition Rate of Mycelial Growth against Pythium aristosporum. The method, then:
(§1) Pythium aristosporum was precultured. And the obtained hyphae (4 mm in diameter) was transplanted on potato sucrose agar medium (PSA) including an agent at a predetermined concentration, and then cultured for two days at room temperature of 20° C., followed by measuring a diameter of the mycelial colony to obtain an inhibition rate of mycelial growth. In addition, a theoretical value of the inhibition rate was calculated using Colby's formula and listed in parentheses of Table 1.

A further assay relates to Pythium aphanidermatum. Nature of the assay: Inhibition test of mycelial growth against Pythium aphanidermatum. The format is cell-based. The settings on record: read-out: Inhibition Rate of Mycelial Growth against Pythium aphanidermatum. As to the method:
[Worded in the source for another organism; this organism is reported under the same test.] as §1, with “growth. The inhibition rate of mycelial growth was obtained by measuring a diameter of mycelial colony in the same manner as Test Example 1.” for “growth.”, “2.” for “1.”

The mark [1] stands for this setting: Folpet 0.1 ppm alone (Cyazofamid 0 ppm).
The mark [2] stands for this setting: Folpet 1 ppm alone (Cyazofamid 0 ppm).
The mark [3] stands for this setting: Folpet 10 ppm alone (Cyazofamid 0 ppm).
Where [4] appears, read: Folpet 100 ppm alone (Cyazofamid 0 ppm).
The mark [5] stands for this setting: Cyazofamid 0.1 ppm alone (Folpet 0 ppm).
[6] abbreviates: Cyazofamid 1 ppm alone (Folpet 0 ppm).
Setting [7] is: Cyazofamid 10 ppm alone (Folpet 0 ppm).
The mark [8] stands for this setting: Cyazofamid 100 ppm alone (Folpet 0 ppm).

On to `O=C1c2ccccc2C(=O)N1SC(Cl)(Cl)Cl` [Folpet, N-(trichloromethanesulphenyl)phthalimide], for which the inhibition at 0.1 ppm in the assay on Pythium aristosporum (setting [1]) is 3%; in the assay with Pythium aphanidermatum (setting [1]), 2%. The inhibition at 1 ppm was found to be 3% in the assay on Pythium aristosporum (setting [2]) and 0% in the assay on Pythium aphanidermatum (setting [2]). The figures for the inhibition at 10 ppm with Pythium aristosporum (setting [3]) and in the assay on Pythium aphanidermatum (setting [3]) were 45% and 62%, respectively. The values for the inhibition at 100 ppm in the assay on Pythium aristosporum (setting [4]) and in the assay on Pythium aphanidermatum (setting [4]) were 90% and 80%, respectively.
Regarding `Cc1ccc(-c2c(Cl)nc(C#N)n2S(=O)(=O)N(C)C)cc1` [Cyazofamid, 4-chloro-2-cyano-1-dimethylsulfamoyl-5-(4-methylphenyl)imidazole], the inhibition at 0.1 ppm in the assay with Pythium aristosporum (setting [5]) was determined as 17%; in the assay on Pythium aphanidermatum (setting [5]), 54%. Further, the inhibition at 1 ppm in the assay on Pythium aristosporum (setting [6]) came out at 38%; in the assay with Pythium aphanidermatum (setting [6]), 52%. In addition, the inhibition at 10 ppm is 38% in the assay on Pythium aristosporum (setting [7]) and 60% in the assay with Pythium aphanidermatum (setting [7]). The inhibition at 100 ppm with Pythium aristosporum (setting [8]) was found to be 41%; with Pythium aphanidermatum (setting [8]), 80%.

As a reminder, the inhibition is the percentage by which the read-out fell short of the control.
